The record followed here is patent publication US9073940B2, “Tricyclic pyrazol amine derivatives” (MERCK SERONO SA, priority 2009, dated 2015).

Counter-ions that a name gives are not always drawn.

One test concerns 4 PI3K isoforms (Human recombinant GST-PI3K). The experiment in a line: PI3K scintillation proximity assay, best IC50 obtained with the four isoforms (alpha, beta, delta, gamma). The test is classed as biochemical. The conditions noted are these: best IC50 obtained with the four isoforms of PI3K; read-out: Best potency measured on the 4 PI3K isoforms. (In a scintillation proximity assay essentially only radioactivity close to the scintillant gives light.)
With `O=C(CC1CCCCC1)N1CCC[C@H](n2nc(C(=O)N3CCOCC3)c3c2-c2ccccc2S(=O)(=O)C3)C1` [Example 399], the IC50 is 735 nM.

In the case of `O=C(c1nn(C2CCNC2)c2c1CS(=O)(=O)c1ccccc1-2)N1CCOCC1` (stereo not shown) [Example 84], the IC50 was 4640 nM.

For `O=C(c1nn([C@@H]2CCN(CCN3CCC(F)CC3)C2)c2c1CS(=O)(=O)c1ccccc1-2)N1CCOCC1` (single isomer, unassigned) [Example 409, 1-{1-[2-(4-fluoropiperidin-1-yl)ethyl]pyrrolidin-3-yl}-3-(morpholin-4-ylcarbonyl)-1,4-dihydrothiochromeno[4,3-c]pyrazole 5,5-dioxide], the IC50 was 55 nM.

Regarding `Cc1cccc2c1S(=O)(=O)Cc1c(C(=O)N3CCOCC3)nn([C@H]3CCCN(CCN4CCOCC4)C3)c1-2` (stereo in doubt) [Example 471, 6-methyl-3-(morpholin-4-ylcarbonyl)-1-[1-(2-morpholin-4-ylethyl)piperidin-3-yl]-1,4-dihydrothiochromeno[4,3-c]pyrazole 5,5-dioxide], the IC50 stood at 49 nM.

As to `O=C(c1nn([C@H]2CCN(CCC3CCOCC3)C2)c2c1CS(=O)(=O)c1c(F)cccc1-2)N1CCOCC1` (single isomer, unassigned) [Example 354, 6-fluoro-3-(morpholin-4-ylcarbonyl)-1-{1-[2-(tetrahydro-2H-pyran-4-yl)ethyl]pyrrolidin-3-yl}-1,4-dihydrothiochromeno[4,3-c]pyrazole 5,5-dioxide hydrochloride salt], the IC50 amounted to 92 nM.

Turning to `CC(=O)OCCN1CCC(n2nc(C(=O)N3CCOCC3)c3c2-c2ccccc2S(=O)(=O)C3)C1` (stereo not shown) [Example 299, 2{3-[3-(Morpholin-4-ylcarbonyl)-5,5-dioxidothiochromeno[4,3-c]pyrazol-1(4H)-yl]pyrrolidin-1-yl)ethyl acetate], the IC50 was 871 nM.

On to `CN(C)S(=O)(=O)c1cccc(-n2nc(C(=O)N3CCOCC3)c3c2-c2ccccc2S(=O)(=O)C3)c1` [Example 207, N,N-Dimethvl-3-[3-(morpholin-4-ylcarbonyl)-5,5-dioxidothiochromeno[4,3-c]pyrazol-1 (4H)-yl]benzenesulfonamide], for which the IC50 worked out at 641 nM.

For the molecule `O=C(c1nn(C2CCN(CCN3CC[C@@H](F)C3)C2)c2c1CS(=O)(=O)c1ccccc1-2)N1CCOCC1` (stereo partly drawn) [Example 308, 1-(1-{2-[(3R)-3-Fluoropyrrolidin-1-yl]ethyl}pyrrolidin-3-yl)-3-(morpholin-4-ylcarbonyl)-1,4-dihydrothiochromeno[4,3-c]pyrazole 5,5-dioxide], the IC50 came out at 120 nM.

Consider `COC1CN(CCN2CCC[C@H](n3nc(C(=O)N4CCOCC4)c4c3-c3ccccc3S(=O)(=O)C4)C2)C1` (stereo in doubt) [Example 446, 1-{1-[2-(3-methoxyazetidin-1-yl)ethyl]piperidin-3-yl}-3-(morpholin-4-ylcarbonyl)-1,4-dihydrothiochromeno[4,3-c]pyrazole 5,5-dioxide], for which the IC50 amounted to 20 nM.

For `O=C(c1nn(C2CCN(CCn3cccn3)C2)c2c1CS(=O)(=O)c1ccccc1-2)N1CCOCC1` (stereo not shown) [Example 286, 3-(Morpholin-4-ylcarbonyl)-1-{1-[2-(1H-pyrazol-1-yl)ethyl]pyrrolidin-3-yl}-1,4-dihydrothiochromeno[4,3-c]pyrazole 5,5-dioxide], the IC50 came out at 257 nM.

Turning to `CCc1nc(-c2cccc(-n3nc(C(=O)N4CCOCC4)c4c3-c3ccccc3S(=O)(=O)C4)c2)no1` [Example 199, 1-[3-(5-Ethyl-1,2,4-oxadiazol-3-yl)phenyl]-3-(morpholin-4-ylcarbonyl)-1,4-dihydrothiochromeno[4,3-c]pyrazole 5,5-dioxide], the IC50 was 2590 nM.

With `COc1cccc2c1S(=O)(=O)Cc1c(C(=O)N3CCOCC3)nn([C@H]3CCCN(CCN4CCOCC4)C3)c1-2` (single isomer, unassigned) [Example 424, 6-methoxy-3-(morpholin-4-ylcarbonyl)-1-[1-(2-morpholin-4-ylethyl)piperidin-3-yl]-1,4-dihydrothiochromeno[4,3-c]pyrazole 5,5-dioxide], the IC50 came out at 59 nM.

Consider `O=C(c1nn(C2CCOCC2)c2c1CS(=O)(=O)c1ccccc1-2)N1CCOCC1` [Example 32, 3-(morpholin-4-ylcarbonyl)-1-(tetrahydro-2H-pyran-4-yl)-1,4-dihydrothiochromeno[4,3-c]pyrazole 5,5-dioxide], for which the IC50 amounted to 223 nM.

Regarding `O=C(c1nn([C@@H]2CCCN(CCC3CCOCC3)C2)c2c1CS(=O)(=O)c1ccccc1-2)N1CCOCC1` (single isomer, unassigned) [Example 307, 3-(morpholin-4-ylcarbonyl)-1-{1-[2-(tetrahydro-2H-pyran-4-yl)ethyl]piperidin-3-yl}-1,4-dihydrothiochromeno[4,3-c]pyrazole 5,5-dioxide], the IC50 is 2200 nM.

`O=C(c1nn(C2CCN(CCC3CCOCC3)C2)c2c1CS(=O)(=O)c1c(F)cccc1-2)N1CCOCC1` (stereo not shown) [Example 302, 6-Fluoro-3-(morpholin-4-ylcarbonyl)-1-{1-[2-(tetrahydro-2H-pyran-4-yl)ethyl]pyrrolidin-3-yl}-1,4-dihydrothiochromeno[4,3-c]pyrazole 5,5-dioxide]: the IC50 was found to be 21 nM.

Turning to `COC1CCN(Cc2cccc(-n3nc(C(=O)N4CCOCC4)c4c3-c3ccccc3S(=O)(=O)C4)c2)CC1` [Example 234, 1-{3-[(4-Methoxypiperidin-1-yl)methyl]phenyl}-3-(morpholin-4-ylcarbonyl)-1,4-dihydrothiochromeno[4,3-c]pyrazole 5,5-dioxide], the IC50 is 240 nM.

Turning to `COCCN1CCC[C@H](n2nc(C(=O)N3CCOCC3)c3c2-c2cccc(OC)c2S(=O)(=O)C3)C1` (single isomer, unassigned) [Example 428, 6-methoxy-1-[1-(2-methoxyethyl)piperidin-3-yl]-3-(morpholin-4-ylcarbonyl)-1,4-dihydrothiochromeno[4,3-c]pyrazole 5,5-dioxide], the IC50 is 128 nM.

Consider `COC1CCN(C(=O)c2cccc(-n3nc(C(=O)N4CCOCC4)c4c3-c3ccccc3S(=O)(=O)C4)c2)CC1` [Example 142, 1-{3-[(4-Methoxypiperidin-1-yl)carbonyl]phenyl}-3-(morpholin-4-ylcarbonyl)-1,4-dihydrothiochromeno[4,3-c]pyrazole 5,5-dioxide], for which the IC50 stood at 302 nM.

Regarding `CC1CN(Cc2ccc(-n3nc(C(=O)N4CCOCC4)c4c3-c3ccccc3S(=O)(=O)C4)cc2)CC(C)O1` (stereo not shown) [Example 435, 1-{4-[(2,6-Dimethylmorpholin-4-yl)methyl]phenyl}-3-(morpholin-4-ylcarbonyl)-1,4-dihydrothiochromeno[4,3-c]pyrazole 5,5-dioxide], the IC50 was found to be 57 nM.

Regarding `O=C(c1nn(C2CCN(C3CCOCC3)C2)c2c1CS(=O)(=O)c1c(F)cccc1-2)N1CCOCC1` (stereo not shown) [Example 298, 6-Fluoro-3-(morpholin-4-ylcarbonyl)-1-[1-(tetrahydro-2H-pyran-4-yl)pyrrolidin-3-yl]-1,4-dihydrothiochromeno[4,3-c]pyrazole 5,5-dioxide], the IC50 turned out to be 29 nM.

`Cc1ccc2c(c1)-c1c(c(C(=O)N3CCOCC3)nn1-c1ccccc1)CS2(=O)=O` [Example 129, 8-Methyl-3-(morpholin-4-ylcarbonyl)-1-phenyl-1,4-dihydrothiochromeno[4,3-c]pyrazole 5,5-dioxide]: the IC50 was determined as 1500 nM.

As to `COCCN1CCC[C@H](n2nc(C(=O)N3CCOCC3)c3c2-c2cccc(C)c2S(=O)(=O)C3)C1` (single isomer, unassigned) [Example 467, 1-[1-(2-methoxyethyl)piperidin-3-yl]-6-methyl-3-(morpholin-4-ylcarbonyl)-1,4-dihydrothiochromeno[4,3-c]pyrazole 5,5-dioxide], the IC50 is 96 nM.

Turning to `O=C(c1nn(-c2cccc(-c3ncon3)c2)c2c1CS(=O)(=O)c1ccccc1-2)N1CCOCC1` [Example 324], the IC50 came out at 6690 nM.

Regarding `O=C(c1cccc(-n2nc(C(=O)N3CCOCC3)c3c2-c2ccccc2S(=O)(=O)C3)c1)N1CCOCC1` [Example 61, 3-(Morpholin-4-ylcarbonyl)-1-[3-(morpholin-4-ylcarbonyl)phenyl]-1,4-dihydrothiochromeno[4,3-c]pyrazole 5,5-dioxide], the IC50 was 73 nM.

Turning to `O=C(c1nn(-c2ccc(CN3CCCC3)cc2)c2c1CS(=O)(=O)c1ccccc1-2)N1CCOCC1` [Example 228, 3-(Morpholin-4-ylcarbonyl)-1-[4-(pyrrolidin-1-ylmethyl)phenyl]-1,4-dihydrothiochromeno[4,3-c]pyrazole 5,5-dioxide], the IC50 is 285 nM.

Turning to `CC1(C)CN(Cc2ccc(-n3nc(C(=O)N4CCOCC4)c4c3-c3ccccc3S(=O)(=O)C4)cc2)CCO1` [Example 437, 1-{4-[(2,2-Dimethylmorpholin-4-yl)methyl]phenyl}-3-(morpholin-4-ylcarbonyl)-1,4-dihydrothiochromeno[4,3-c]pyrazole 5,5-dioxide], the IC50 is 120 nM.

Regarding `O=C(c1nn(-c2cccc(OCCn3cccn3)c2)c2c1CS(=O)(=O)c1ccccc1-2)N1CCOCC1` [Example 340, 3-(Morpholin-4-ylcarbonyl)-1-{3-[2-(1H-pyrazol-1-yl)ethoxy]phenyl}-1,4-dihydrothiochromeno[4,3-c]pyrazole 5,5-dioxide], the IC50 is 445 nM.

Take `O=C(c1nn([C@H]2CCCN(CCC3CCOCC3)C2)c2c1CS(=O)(=O)c1ccccc1-2)N1CCOCC1` (single isomer, unassigned) [Example 306, 3-(morpholin-4-ylcarbonyl)-1-{1-[2-(tetrahydro-2H-pyran-4-yl)ethyl]piperidin-3-yl}-1,4-dihydrothiochromeno[4,3-c]pyrazole 5,5-dioxide]: the IC50 is 34 nM.

As to `CCC1c2c(C(=O)N3CCOCC3)nn(-c3ccccc3)c2-c2ccccc2S1(=O)=O` (stereo not shown) [Example 59, 4-ethyl-3-(morpholin-4-ylcarbonyl)-1-phenyl-1,4-dihydrothiochromeno[4,3-c]pyrazole 5,5-dioxide], the IC50 was 2470 nM.

The same test, now with this note: inhibition at 20 μM.
For `CS(=O)(=O)c1ccccc1-n1nc(C(=O)N2CCOCC2)c2c1-c1ccccc1S(=O)(=O)C2` [Example 314], the “Best potency measured on the 4 PI3K isoforms, % inh @20 μM” value came out at 45% inh @20 μM.

As to `O=C(c1nn(-c2cccc(-c3nn[nH]n3)c2)c2c1CS(=O)(=O)c1ccccc1-2)N1CCOCC1` [Example 325], the “Best potency measured on the 4 PI3K isoforms, % inh @20 μM” value worked out at 19% inh @20 μM.
